Results as given in patent publication US20250120975A1, “INTEGRIN INHIBITORS FOR TREATMENT OF PRIMARY SCLEROSING CHOLANGITIS” (Pliant Therapeutics, Inc., priority 2023, published 2025).
“Also recorded” adds a separate entry of the source.

Tests used:
[1] = Plasma and liver concentrations in BALB/c.Mdr2−/− mice at harvest; type: in vivo, mouse
Protocol: (S)-4-((2-methoxyethyl)(4-(5,6,7,8-tetrahydro-1,8-naphthyridin-2-yl)butyl)amino)-2-(quinazolin-4-ylamino)butanoic acid (or PBS) was dosed once daily orally at 100 mg/kg, 300 mg/kg or 1000 mg/kg (see Table B-2) starting at 6 weeks after birth of the subject and continuing for 6 weeks. All animals were euthanized and necropsied at the end of week 12.
Plasma samples were assayed by a qualified non-GLP bioanalytical method. Liver samples were homogenized in five volumes of ice-cold water. For plasma and liver homogenate, 20 μL of sample was extracted with 100 μL methanol: acetonitrile (5:95 v: v) containing 10 ng/mL internal standard. The solution was centrifuged at 4000 RPM for 5 minutes and 70 μL of supernatant transferred to injection plate containing 70 μl water. An aliquot of 10 μL was injected to a Sciex 4000 system. Concentrations of (S)-4-((2-methoxyethyl)(4-(5,6,7,8-tetrahydro-1,8-naphthyridin-2-yl)butyl)amino)-2-(quinazolin-4-ylamino)butanoic acid in mouse plasma and liver homogenate were determined by using Analyst 1.6 software (AB Sciex, Foster City, CA). […] Using this bioanalytical method and four-times dilution of the samples, (S)-4-((2-methoxyethyl)(4-(5,6,7,8-tetrahydro-1,8-naphthyridin-2-yl)butyl)amino)-2-(quinazolin-4-ylamino)butanoic acid can be quantified in the range of 0.5-8000 ng/mL in plasma and liver homogenate.

[2] = Effect of food on pharmacokinetics of the solution; type: in vivo
[3] = Phase 2a INTEGRIS-PSC: plasma concentrations (total and unbound); type: in vivo, human; settings: 40, 80, 160 mg once daily, 12 weeks
Text: The pharmacokinetic, pharmacodynamic, and pharmacogenomic assessments included the following: • a) PK: plasma samples for PK analysis (total and unbound(S)-4-((2-methoxyethyl)(4-(5,6,7,8-tetrahydro-1,8-naphthyridin-2-yl)butyl)amino)-2-(quinazolin-4-ylamino)butanoic acid concentrations) were obtained. • b) Biomarkers: plasma, serum (Parts 1, 2, and 3), and urine (Parts 1 and 2) samples were obtained. • c) Pharmacogenomics: a whole blood sample for deoxyribonucleic acid (DNA) isolation was collected before dosing on Day 1 from each subject in the study.
Blood samples for determination of plasma concentrations of (S)-4-((2-methoxyethyl)(4-(5,6,7,8-tetrahydro-1,8-naphthyridin-2-yl)butyl)amino)-2-(quinazolin-4-ylamino)butanoic acid are obtained before and at least 2 hours after administration of (S)-4-((2-methoxyethyl)(4-(5,6,7,8-tetrahydro-1,8-naphthyridin-2-yl)butyl)amino)-2-(quinazolin-4-ylamino)butanoic acid on Day 1, at Weeks 4 and 12(Parts 1, 2, and 3), Week 24 (Part 3 only), and at early termination (if possible, for any subject who prematurely discontinues from the study). The actual time dosing and the actual time of blood collection is recorded. […]

[4] = test system: subjects with PSC and suspected liver fibrosis; test: Phase 2a INTEGRIS-PSC: Enhanced Liver Fibrosis (ELF) score and components; type: in vivo, human
Protocol: The Enhanced Liver Fibrosis (ELF) score is a set of markers for extracellular matrix (ECM) activity. Three serum markers are measured, tissue inhibitor of metalloproteinases 1 (TIMP-1), amino-terminal propeptide of type III procollagen (PIIINP) and hyaluronic acid (HA). The measurements are combined in an algorithm to provide a score that correlates well with the degree of liver fibrosis (Sharma, C. et al., Journal of Gastroenterology and Hepatology, 36:1788-1802(2021), incorporated by reference herein in its entirety). A change in ELF score greater than or equal to 0.19 is indicative of clinical progression within two years (Muir A. J. et al., Hepatology, 2019 February; 69 (2): 684-698, incorporated by reference herein in its entirety). An ELF greater than or equal to 7.7 is considered moderate to severe fibrosis (Vesterhus M. et al., Hepatology, 2015 July; 62(1):188-97; incorporated by reference herein in its entirety).
In Parts 1 and 2, plasma, serum, and urine biomarker samples were obtained at predetermined times as indicated in the Schedule of Events (see Table B-4). In Part 3, plasma and serum biomarker samples were obtained at predetermined times as indicated in the Schedule of Events (see Table B-5 and Table B-6). These samples were used to measure specific proteins, nucleotides and/or metabolites that were elevated in subjects with fibrosis, and/or pharmacodynamic markers that could change with inhibition of integrins αVβ6 and αVβ1. The samples were also used to perform exploratory investigations using metabolomic or proteomic methods for use in future studies in subjects with fibrotic diseases.
Absolute and relative changes from Baseline in liver fibrosis biomarkers (including PRO-C3 and ELF) and in ALP are presented in numerical and graphical forms by treatment and dose utilizing data from the timepoints specified in the Schedule of Events. Changes from Baseline to Week 12(Parts 1 and 2) and Week 24 (Part 3) in magnetic resonance (MR)-based liver imaging are also evaluated, as well as changes in PROs.

COCCN(CCCCc1ccc2c(n1)NCCC2)CC[C@H](Nc1ncnc2ccccc12)C(=O)O [Bexotegrast, (S)-4-((2-methoxyethyl)(4-(5,6,7,8-tetrahydro-1,8-naphthyridin-2-yl)butyl)amino)-2-(quinazolin-4-ylamino)butanoic acid]
plasma and liver concentrations, comparison of dose groups ([1]; 100, 300 and 1000 mg/kg PO/QD, 6 weeks): higher levels in the 1000 mg/kg group
Kp at 6 weeks ([1]; mouse, liver (relative to plasma), BALB/c.Mdr2−/− mice, after 6 weeks of PO/QD dosing, at harvest, read-out: Liver levels (ng/g) relative to the levels seen in the plasma (ng/mL)): 3 to 5
decrease of AUCinf in the fed state relative to the fasted state [2]: 37%
decrease of Cmax in the fed state relative to the fasted state [2]: 52%
total and unbound plasma concentrations vs dose [3]: increased with dose
ELF score components TIMP-1, HA, PIIINP vs placebo ([4]; 160 mg, Week 12, Example B-3): achieved statistical significance
ELF score, difference to placebo ([4]; 160 mg, Week 12, Example B-3): statistically significant difference
reduction of the mean change in ELF score relative to placebo ([4]; 160 mg, Week 12, Example B-3): 84%
ELF score relative to placebo ([4]; 320 mg, Week 12, Example B-4): reduction
ELF score, overall population ([4]; 320 mg, Week 12 to Week 24, Example B-5): no increase; also recorded: stable ELF score
ELF score, patients at high risk (baseline ELF >9.8) ([4]; 320 mg, Week 24, compared to an increase in the placebo group, Example B-5): reduction in ELF score
ELF score components (TIMP-1, PIIINP, HA) compared to placebo ([4]; 40, 80, 160, 320 mg, Week 12, Example B-4): generally reduced
ELF score relative to placebo ([4]; all doses (40, 80, 160 mg), Week 12, Example B-3): reduced
ELF scores relative to placebo ([4]; all doses (40, 80, 160, 320 mg), Week 12, Example B-4): reduced
